Square brackets hold non-standard residues; d marks the D form. Peptide text beside a SMILES is read from it.

The target in experiment [1] is T1, extracellular domain of human PD-1 (Homo sapiens, UniProt Q15116, C93S).
T1 construct: ectodomain of human PD-1 (aa 33- 150) was cloned into pET-24d; made in house
Put plainly: Surface plasmon resonance (SPR), PD-1 immobilised on CM5 chip. It counts as binding. The conditions noted are these: analytes injected at 10, 100 and 1000 µM in PBS, 25 °C, PBS-T pH 7.4, reference channel subtracted; KD not calculable (fast kinetics, no saturation). From the text:
Seven de novo designed cyclic peptides were in total selected for experimental characterization (PD-i1-7). To this end, peptide chains were elongated on a Wang-linker modified polystyrene resin (anchoring through the Asp side-chain carboxylic acid). This chemical strategy enabled the head-to-tail cyclisation to be readily performed on-resin, and a final deprotection/cleavage step yielded the already cyclized final peptide (Scheme S1 ^†). To test for their bioactivity, the extracellular domain of human PD-1 was recombinantly expressed in E. coli and refolded from inclusion bodies. The purified protein was then immobilized by free amine coupling on a CM5 sensor chip surface, and surface plasmon resonance (SPR) measurements were performed. […] In particular, we selected microscale thermophoresis (MST) as it has been validated with this system[30] and allows the quantification of interactions in solution, which mimics physiological conditions. To this end, PD-1 was first fluorescently labelled and then titrated with increasing amounts of PD-i3 and PD-i6. […] Mutation of L-Trp, which serves as PD-1 anchor for the in silico design process, largely abolished binding to the target (Fig. S9A ^†). […]

For experiment [2], the target named is T2, 15N-labelled PD-1 extracellular domain (Homo sapiens, UniProt Q15116, C93S).
T2 construct: ectodomain of human PD-1 (aa 33- 150) was cloned into pET-24d; made in house
Nature of the experiment: 1H,15N HSQC NMR mapping of interaction site. It counts as binding. Particulars: 15N-PD-1 60 µM, peptide 1 mM, 25 °C, pH 6.4; I/Io > 20% considered significant; residues adjacent to the CC′ loop. As for the experimental part: To further elucidate the interaction site of PD-i3 and PD-i6, we expressed the extracellular domain of PD-1 uniformly labelled in ^15N and performed high-resolution NMR spectroscopy assays.
Microscale thermophoresis (MST)
MST was used to calculate the binding affinities in solution of PD-i3 and PD-i 6 for the extracellular domain of human PD-1. To this end, PD-1 was fluorescently labelled by reaction of the Lys side chains with Alexa-647-NHS (6 eq) for 3 h at 4 °C. The labelled protein was purified by size-exclusion chromatography and was diluted in PBS-T buffer (0.05% Tween 20, pH 7.4) to a final concentration of 10 nM. […]
#BE0193) as positive controls (Figure S). […] A reproducible and negative thermophoresis response was observed, which was baseline-corrected and normalized (ΔFnorm [‰]).The curves were analyzed using a standard Langmuir binding model, from which dissociations constants (K D) were determined. […]
ITC experiments were performed at 25 °C using a low-volume nano ITC calorimeter (TA instruments). […] Binding isotherms were analysed using the software provided by TA instruments, assuming a single binding site for the independent domains. […]
1H,15N HSQC spectra were recorded at 25 °C on a Bruker 600 MHz spectrometer equipped with a cryoprobe. […]
To assess the solution structures of PD-i3 and PD-i6, NMR spectra were recorded at 5 °C on a Bruker B800 MHz spectrometer equipped with a cryoprobe. […]

T1 sequence (Q15116 33-150 C93S limits assumed): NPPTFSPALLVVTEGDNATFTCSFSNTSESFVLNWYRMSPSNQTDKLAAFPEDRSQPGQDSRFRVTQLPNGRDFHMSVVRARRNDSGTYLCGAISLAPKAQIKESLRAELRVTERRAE
T2 sequence (Q15116 33-150 C93S limits assumed): as above

Take `CSCC[C@@H]1NC(=O)[C@H]([C@@H](C)O)NC(=O)[C@H](CC(=O)O)NC(=O)[C@H]2CCCN2C(=O)[C@H](Cc2ccc(O)cc2)NC(=O)[C@H](CCCNC(=N)N)NC(=O)[C@@H](CCCNC(=N)N)NC(=O)[C@@H](CCC(=O)O)NC(=O)[C@H](CC(C)C)NC(=O)[C@H](Cc2ccc(O)cc2)NC1=O` [PD-i3] (cyclo(DTMYL[dE][dR]RY[dP])): the “SPR response on PD-1-functionalised channel” value in experiment [1] was “distinct concentration-dependent SPR responses”. Besides, the “Changes in PD-1 HSQC signal intensity on peptide addition” value in experiment [2] is recorded as “significant changes in signal intensity”.
For `CC(C)[C@@H]1NC(=O)[C@@H](Cc2c[nH]c3ccccc23)NC(=O)[C@H](Cc2c[nH]c3ccccc23)NC(=O)[C@H](CC(=O)O)NC(=O)[C@@H](CCCCN)NC(=O)[C@H](C)NC(=O)[C@H](CCC(=O)O)NC(=O)[C@H]2CCCN2C1=O` [PD-i6] (cyclo(A[dK]DW[dW]V[dP]E)), in that order: “distinct concentration-dependent SPR responses” and “significant changes in signal intensity”.

Values taken from publication PMC8179567, “Target-templated de novo design of macrocyclic D-/L-peptides: discovery of drug-like inhibitors of PD-1” (Chemical Science, 2021).
